From patent publication US5565462A, “Composition for topical treatment of psoriasis and atopic dermatitis comprising a xanthine derivative” (Teva Pharmaceutical Industries, Ltd., priority 1991, dated 1996)

Key:
[1] = tested on: human psoriatic skin transplants; test: Topical treatment of human psoriatic skin transplanted to nude mice (epidermal thickness / acanthosis); type: in vivo, human skin on outbred Balb/C nude mice
Text: Human psoriatic skin from psoriatic patients was transplanted to nude mice essentially according to the method of G. Kreuger et al., Prog. in Dermatol. […] The donors had stable plaque type psoriasis for at least one year preceding biopsy and had not received systemic anti-psoriatic therapy for the 4 weeks preceding biopsy. They had also not received topical therapy or U.V. therapy for the two weeks preceding biopsy. […] In this method the area (A) of the psoriasis in four main body parts (head (H), trunk (T), upper extremities (U) and lower extremities (L)) is assigned a value from 0-6 depending on the extent of psoriasis where O reflects no involvement and 6 reflects 90-100% involvement. The severity of the lesion is assessed based on three parameters: Erythema (E), Desquamation (scaling) (D) and Infiltration (I). The severity of each of these parameters is measured on a scale of 0-4 where 0 is no involvement and 4 is very sever. The total severity score is calculated according to the following formula: […]
Split thickness biopsies of nonpustular psoriatic human tissue, 4×5 cm and 0.4 mm thick were obtained from the edge of established plaques from various donor patients. […] The grafts were allowed to heal for one week prior to topical application of the test preparations.
Outbred Balb/C nude mice, 2 to 3 months of age were used in this study. The mice were obtained from the pathogen free animal breeding facility at the University of Tel Aviv (Israel) and were raised in the pathogen-free animal facility at the Faculty of Medicine, Technion-Israel Institute of Technology, Haifa, Israel.
On the day following the end of treatment the severity of the psoriatic lesion was assessed and then the animals were sacrificed and the entire graft was excised and divided into two equal sections. One section was used to assess changes in the rate of proliferation by autoradiography (tritiated thymidine incorporation) while the other section was sectioned for microscopic histological assessment, including acanthosis and parakeratosis.
In another series of experiments, human psoriatic skin of various severities was transplanted on each of 28 nude mice. The graft area was treated with various preparations as described above.
The treatments were applied as creams and were administered as described above.

[2] = tested on: human psoriatic fibroblasts; test: Inhibition of human psoriatic fibroblast proliferation; type: cell-based; conditions: Homo sapiens, Fibroblast
Experimental: PTX and PPF, alone as well as PTX in combination with other drugs were tested.
Human psoriatic fibroblasts were obtained from skin biopsies of 5 individuals with plaque psoriasis. Cells in the 3-7th passages were used for the experiments. Human psoriatic fibroblasts (4×10^3 -6×10^3 cells) were added in 24-well plates and cultured in Dulbecco's Modified Eagle's Medium (DMEM) supplemented with 10% fetal calf serum, 2 mM L-glutamine, 100 u/ml penicillin, 100 μg/ml streptomycin (DMEM+) at 5% CO2 and 95% humidity at 37° C.
After 3 days, medium was replaced with fresh DMEM+(control) or with medium containing various concentrations of compounds alone or in combination with pentoxifylline and incubation was continued for additional 3 days. Stock solutions (10^-1 -10^-2 M) of the compounds tested were made in ethanol. For these compounds special control (DMEM+ with 1% ethanol) was made. The compounds tested together with pentoxifylline were 3-heptanone, 3,3-dimethylbutyric acid, lipoic acid, 1,25-dihydroxyvitamin D3 betamethasone dipropionate and hydrocortisone-17-butyrate.
On the last day of experiments, the medium was aspirated and the cells were obtained by trypsinization. The number of cells in each well was counted by the use of an hemocytometer.
The percentage of inhibition of fibroblast proliferation was calculated according to the formula: [formula] and the results are shown in Tables 3 and 4.

[3] = tested on: human peripheral blood mononuclear cells (lymphocytes); test: Inhibition of the mitogenic (PHA) stimulation of human lymphocytes (PBMC), [3H]thymidine; type: cell-based
Experimental: Buffy coats from the Beilinson Medical Center Blood Bank or 20 mL samples of heparinized venous blood from healthy or atopic donors were used as a source for human peripheral blood mononuclear (PBM) cells. PBM cells were separated by Ficoll-Hypaque density gradient centrifugation. […] The nonadhering cells were stirred gently and carefully collected.
PHA (1 μg/mL), indomethacin (5 μg/mL) and various xanthine derivatives were added at initiation of culture. Indomethacin was dissolved in ethanol. […] [methyl-^3 H]Thymidine (1 μCi/well) was added at 68 h, and the cells were harvested 4 h later using an automated cell harvester (Dynatech, Alexandria, Va.). Unless otherwise stated, all cultures were performed in triplicate.

psoriasis lesions = test: Clinical trial in psoriasis, 2% pentoxifylline cream vs placebo, right-left comparison, PASI; type: in vivo, human patients; conditions: for decrease in PASI: 2% cream twice daily
Experimental: A clinical trial was performed comparing a cream composition of 2% pentoxifylline (formulation A of Example 1) to placebo. The trial was randomized, double blind, placebo controlled, right-left comparison within patient design.
Two similar plaque areas of psoriasis (i.e. both legs or forearms), were selected for treatment in each patient. In each patient one area on one side of the body was treated with 2% pentoxifylline formulated as in Example 1 and the other area on the other side of the body was treated with placebo cream formulated identically but without the pentoxifylline. The cream (formulation A in Example 1) was applied by the patient twice daily.
Patients stopped all forms of topical psoriatic treatment two weeks before entry into the study.
Systemic psoriatic treatments and phototherapy were stopped one month before entry into the study.
The dermatological assessment was performed as follows. The dermatologist measured the area of the lesion in cm^2. The severity of each lesion was evaluated by grading erythema, scaling and thickness on a 0-4 scale where 0=none, 1=slight, 2=moderate, 3=severe and 4=exceptionally severe.
Based on these measurements the Psoriasis Area Severity Index (PASI) was calculated for each of the 2 lesions on each patient as follows:
PASI=Area x (Erythema+Thickness+Scaling)

atopic dermatitis = test: Clinical trial in atopic dermatitis, 2% pentoxifylline cream vs vehicle, bilateral comparison; type: in vivo, human patients; conditions: 2% cream twice a day, four weeks, seven patients aged 3-10 years
Experimental: A randomized double blind, vehicle controlled, bilateral comparison study was performed, to determine the effect of pentoxifylline (PTX) in the treatment of atopic dermatitis. The study medication contained 2% pentoxifylline in an oil-in-water cream vehicle, and the control treatment consisted of the same vehicle without the pentoxifylline. The exact formulations appear in Table 7.
Seven patients (aged 3-10 years) were enrolled in the trial and evaluated for pruritus, erythema, dryness/scaling and exudate. Pentoxifylline cream, or the placebo (the identical cream, but without the pentoxifylline) were dispensed in identical tubes that were marked for application to right and left sides. Patients were instructed to apply medication twice a day (morning and evening) for four weeks.

## CC(=O)CCCCn1c(=O)c2c(ncn2C)n(C)c1=O [Pentoxifylline, 3,7-dimethyl-1-(5-oxohexyl)-xanthine]
[1]; 2% PTX cream, 7 days, donor patient 3 (PASI 7.6)
  % Improvement (Decrease in Thickness): 40%
[1]; 2% PTX cream, 7 days, donor patient 4 (PASI 17.6)
  % Improvement (Decrease in Thickness): 22%
[1]; 2% PTX cream, 7 days, donor patient 6 (PASI 3.8), placebo 0
  % Improvement (Decrease in Thickness): 30%
[1]; 2% PTX cream, 7 days, placebo 5%
  Average Improvement (decrease in epidermal thickness): 31%
[1]; 2% PTX cream, donor patient 3 (PASI 7.6), before treatment 46 μm
  Epidermal Thickness (Acanthosis) after 7 days treatment: 28 μm
[1]; 2% PTX cream, donor patient 4 (PASI 17.6), before treatment 54 μm
  Epidermal Thickness (Acanthosis) after 7 days treatment: 42 μm
[1]; 2% PTX cream, donor patient 6 (PASI 3.8), before treatment 55 μm
  Epidermal Thickness (Acanthosis) after 7 days treatment: 39 μm
[1]; 2% pentoxifylline cream (Example 1A), 7 days topical, placebo 0/6
  SUCCESS RATIO (decrease of at least 15% in epidermal thickness): 6/10
[1]; experiment of Table 1, transplanted skin
  effectiveness in treating psoriasis (in words): almost as effective as steroids in treating psoriasis and far more effective than dyphylline
[1]; experiment of Table 2, 28 nude mice
  effectiveness in treating psoriasis (in words): almost as effective as topical steroids in treating psoriasis and far more effective than dyphylline
[1]; summary of the animal model experiments
  effectiveness in the treatment of psoriasis (in words): effective in the treatment of psoriasis
[2]; PTX alone, 10^-3 M, Table 3
  inhibition at 1000 µM: 16.9%
[2]; compound alone, 10^-4 M, Table 4
  inhibition at 100 µM: 5.9%
[3]; Homo sapiens, Lymphocyte, 1 × 10^-3 M, lymphocytes from healthy volunteers, read-out: net inhibitory effect on the mitogenic stimulation of human lymphocytes
  inhibition at 1000 µM: 70%
[3]; Homo sapiens, Lymphocyte, 3 × 10^-4 M, lymphocytes from healthy volunteers, read-out: net inhibitory effect on the mitogenic stimulation of human lymphocytes
  inhibition at 300 µM: 46%
[3]; vs theophylline and diphylline, healthy volunteers
  inhibition of the mitogenic stimulation compared with the other xanthine derivatives (in words): inhibited the mitogenic stimulation to a far greater effect than the other xanthine derivatives
Psoriasis lesions; Patient 1, 1.5 weeks, placebo side 0%
  decrease in PASI: 58%
Psoriasis lesions; Patient 2, 2 weeks, placebo side 34%
  decrease in PASI: 53%
Psoriasis lesions; Patient 3, 2 weeks, placebo side 45%
  decrease in PASI: 73%
Psoriasis lesions; Patient 3, 6 weeks, placebo side 56%
  decrease in PASI: 90%
Psoriasis lesions; Patient 4, 6 weeks, placebo side 73%
  decrease in PASI: 91%
Psoriasis lesions; Patient 4, 8 weeks, placebo side 57%
  decrease in PASI: 88%
Psoriasis lesions; Patient 5, 2 weeks, placebo side 25%
  decrease in PASI: 73%
Psoriasis lesions; topical, summary of clinical trials
  effectiveness in the treatment of psoriatic lesions (in words): very effective therapeutic for the treatment of psoriatic lesions
Atopic dermatitis
  improvement of pruritus, erythema, dryness/scaling and exudate (in words): significantly improved each of the four symptoms evaluated
